Where two headings read alike, the source gives them in different places.

The source of these data is patent US9927440B2, “Protein engineering” (priority 2009, dated 2018).

In data set [1] the target is SN (Staphylococcus aureus, UniProt P00644). Particulars: cited from earlier work.
The target of data set [2] is T1, Staphylococcal nuclease (SN) (Staphylococcus aureus, UniProt P00644).
T1 construct: made in house; host or cells: cell-free TnT, E. coli BL21 Star (DE3) extract
In kind it is binding. Particulars: SN/L36C; 35.3 °C; from single ΔΔGU measurement; read-out: apparent KD (binary complex). The protocol: (§1) The rate of labeling of internal cysteine residues was measured by reacting 30-50 μL of ˜0.1 μM protein sample (i.e., ˜3-5 picomoles of protein) with excess IAM-biotin (1 mM unless otherwise stated) at constant temperature (25 mM MOPS, 100 mM KCl and pH 7.6). 5 μL aliquots were removed at fixed time intervals and quenched by addition of 2 μL 2M β-mercaptoethanol (Sigma; M6250). Following addition of 5 μL LDS-buffer (Invitrogen; NP0007) and heating for 2 min at 85° C., (un)labeled protein species were resolved by SDS-PAGE (Novex 4-12% Bis-Tris Gels; Invitrogen; NP0321). […] For the experiment shown in FIG. 8A, ecRBP variant L62C was modified with 1 mM IAM-biotin at 47.1° C., pH 7.6. […] Streptavidin was used to alter the electrophoretic mobility of the labeled protein (Streptavidin bands indicated by a, b, and c). […] Error bars represent the estimated uncertainty of the integrated band intensities (˜2%). For the experiment shown in FIG. 8B, SN variant L36C was labeled with IAM-biotin at 35.3° C., pH 7.6. […] At 29.3° C., 26.3° C. and 23.3° C., kint and klabel were manipulated by increasing the concentration of IAM-biotin from 1 mM to 3.16 mM.
(§2) The modulation of protein stability by binding of metals, ligands, activators, inhibitors, substrates, nucleic acid or other proteins can be used to measure binding affinities within a GUWO. For a protein with a single binding site, the free energy of ligand binding was described by
(§3) [formula] where P was the binding polynomial, [L] the total ligand concentration, and KD the apparent dissociation constant of the ligand. For proteins with multiple ligand-binding sites, P was expanded as described in Equations 21-36 below.
(§4) By thermodynamic linkage, any change in ΔGU caused predominantly by ligand binding (Scheme 1) is ΔGbind=ΔΔ^LGU=Δ^LGU−Δ^apoGU [20] where Δ^LGU and Δ^apoGU were the stability of the protein in the presence of absence of ligand respectively. Equation 20 was used to obtain apparent KD values from either the ligand dependence of ΔΔGU (by curve fitting), or from a single measurement of ΔΔGU.

The target of data set [3] is T2, Staphylococcal nuclease (SN) (Staphylococcus aureus, UniProt P00644, L118C/Q162N).
T2 construct: made in house; host or cells: cell-free TnT, E. coli BL21 Star (DE3) extract
In kind it is binding. The note with it: 35.3 °C. The protocol: as §1, §2, §3, §4

The conditions of data set [4]: literature; cited from earlier work.
[5] abbreviates: Ca2+ and pdTp synergistic, read-out: affinity for SN in the presence of the other ligand.

On to `[Ca+2]` [Ca^2+], for which the Kd was roughly 2 µM in data set [1] (setting [5]); roughly 500 µM in data set [1] (Serpersu et al. 1986, read-out: affinity for SN, ligand by itself); 600 ± 200 µM in data set [2]. The “increase in stability (ΔΔGU) of SN/L36C” value in data set [3] (1 mM Ca2+) stood at 0.6 ± 0.2 kcal/mol.
For `Cc1cn([C@H]2C[C@H](OP(=O)(O)O)[C@@H](COP(=O)(O)O)O2)c(=O)[nH]c1=O` [pdTp], the Kd in data set [1] (setting [5]) was roughly 2 µM; in data set [2], 23 ± 4 µM. Moreover, the “increase in stability (ΔΔGU) of SN/L36C” value in data set [3] (50 μM pdTp) is 0.7 ± 0.2 kcal/mol.

B1: wild-type ecRBP: wild-type E. coli ribose-binding protein (protein, listed as Escherichia coli)
chain: MKDTIALVVSTLNNPFFVSLKDGAQKEADKLGYNLVVLDSQNNPAKELANVQDLTVRGTKILLINPTDSDAVGNAVKMANQANIPVITLDRQATKGEVVSHIASDNVLGGKIAGDYIAKKAGEGAKVIELQGIAGTSAARERGEGFQQAVAAHKFNVLASQPADFDRIKGLNVMQNLLTAHPDVQAVFAQNDEMALGALRALQTAGKSDVMVVGFDGTPDGEKAVNDGKLAATIAQLPDQIGAKGVETADKVLKGEKVQAKYPVDLKLVVKQNGGSHHHHHH
For B1, the Tm of wild-type in data set [4] was 62.6 °C.
